{
  "source": "patent US6750012B1",
  "about": "“Method of identifying a psychotropic agent using differential gene expression” (CuraGen Corporation, priority 1998, dated 2004)",
  "key": {"[1]": {"tested_on": "L1 retrotransposon mIvi2-rn38 (HALO32 in Table 1, HALO31 in text)", "assay": "GENECALLING differential gene expression, striatum of haloperidol-treated rats", "format": "in vivo, rat", "conditions": "haloperidol-treated rats, striatum", "method": "(§1) Accordingly, the differentially expressed genes were identified by treating Wistar rats with haloperidol (0.041 mg/kg/d for 3 days via continuous infusion Alza pump), or rats treated with vehicle only for 3 days.\n(§2) Rats were then sacrificed, their brains were removed, and total RNA was recovered from the microdissected striatum. cDNA was prepared and the resulting samples were processed through 140 subsequences of GENECALLING™ differential expression analysis as described in U.S. Pat. No. 5,871,697 and in Shimkets et al., Nature Biotechnology 17:198-803 (1999).\n(§3) 101 gene fragments were initially found to be differentially expressed in rat striatum in response to haloperidol. The differential expression of 50 of the gene fragments was confirmed using a unlabeled oligonucleotide competition assay as described in Shimkets et al., Nature Biotechnology 17:198-803. 32 single copy nucleic acid sequences genes and 5 repetitive copy nucleic acid sequences differentially expressed in haloperidol and vehicle treated striatum were selected for further analysis elements."}, "[2]": {"tested_on": "HALO7, novel gene fragment, 86% similar to human U1 snRNP 70 kDa protein", "assay": "GENECALLING differential gene expression, striatum of haloperidol-treated rats", "format": "in vivo, rat", "method": "as §1, §2, §3"}, "HALO24, V-1 protein": {"tested_on": "HALO24, V-1 protein", "assay": "GENECALLING differential gene expression, striatum of haloperidol-treated rats", "format": "in vivo, rat", "method": "as §1, §2, §3"}, "[3]": {"tested_on": "HALO9, novel gene fragment, 98% similar to mouse meis2 [U57343]", "assay": "GENECALLING differential gene expression, striatum of haloperidol-treated rats", "format": "in vivo, rat", "method": "as §1, §2, §3"}, "HALO26, Cathepsin S": {"tested_on": "HALO26, Cathepsin S", "assay": "GENECALLING differential gene expression, striatum of haloperidol-treated rats", "format": "in vivo, rat", "method": "as §1, §2, §3"}, "[4]": {"tested_on": "HALO27, D-Amino acid oxidase", "assay": "GENECALLING differential gene expression, striatum of haloperidol-treated rats", "format": "in vivo, rat", "method": "as §1, §2, §3"}, "[5]": {"tested_on": "HALO13, novel gene fragment, 80% similar to human suilisol [L26247]", "assay": "GENECALLING differential gene expression, striatum of haloperidol-treated rats", "format": "in vivo, rat", "method": "as §1, §2, §3"}, "HALO34, JunB [X54686]": {"tested_on": "HALO34, JunB [X54686]", "assay": "GENECALLING differential gene expression, striatum of haloperidol-treated rats", "format": "in vivo, rat", "method": "as §1, §2, §3"}, "HALO33, NGF1-A": {"tested_on": "HALO33, NGF1-A", "assay": "GENECALLING differential gene expression, striatum of haloperidol-treated rats", "format": "in vivo, rat", "method": "as §1, §2, §3"}, "[6]": {"tested_on": "HALO17, novel gene fragment, 65% similarity to 5′ region of human NOF1 [U39400]", "assay": "GENECALLING differential gene expression, striatum of haloperidol-treated rats", "format": "in vivo, rat", "method": "as §1, §2, §3"}, "[7]": {"tested_on": "HALO28, Stomach nonmuscle Ca^+2 ATPase [J04023]", "assay": "GENECALLING differential gene expression, striatum of haloperidol-treated rats", "format": "in vivo, rat", "method": "as §1, §2, §3"}, "[8]": {"tested_on": "HALO21, 2′-3′ cyclic nucleotide 3′ phosphodiesterase [CNPII] [L16532]", "assay": "GENECALLING differential gene expression, striatum of haloperidol-treated rats", "format": "in vivo, rat", "method": "as §1, §2, §3"}, "Inisotaol monophsphates": {"tested_on": "Inisotaol monophsphates", "conditions": "4-6 weeks following administration, decanoate dosing; cited from earlier work"}, "sigma receptors": {"tested_on": "sigma receptors", "conditions": "Seth et al, J Neurochem 70; cited from earlier work"}, "[9]": {"tested_on": "HALO3, rat novel gene fragment, 495 bp", "assay": "GENECALLING differential gene expression, striatum of haloperidol-treated rats", "format": "in vivo", "conditions": "Wistar rat striatum, 0.041 mg/kg/d for 3 days continuous infusion, vs vehicle", "method": "as §1, §2, §3"}, "[10]": {"tested_on": "HALO15, novel gene fragment, 97% similar to mouse gene fragment with 44% amino acid similarity to human sorting nexin-2", "assay": "GENECALLING differential gene expression, striatum of haloperidol-treated rats", "format": "in vivo", "conditions": "Wistar rat striatum, 0.041 mg/kg/d for 3 days continuous infusion, vs vehicle", "method": "as §1, §2, §3"}, "[11]": {"tested_on": "HALO12, rat novel gene fragment, 83% homologous to mouse EGF repeat transmembrane protein", "assay": "GENECALLING differential gene expression, striatum of haloperidol-treated rats", "format": "in vivo", "method": "as §1, §2, §3"}, "[12]": {"tested_on": "HALO14, novel gene fragment, 72% similar to rat repetitive ribosomal DNA II 3′ to 45S pre-rRNA [X02822]", "assay": "GENECALLING differential gene expression, striatum of haloperidol-treated rats", "format": "in vivo", "method": "as §1, §2, §3"}, "[13]": {"tested_on": "HALO5, novel gene fragment, 539 bp", "assay": "GENECALLING differential gene expression, striatum of haloperidol-treated rats", "format": "in vivo", "conditions": "Wistar rat striatum, 0.041 mg/kg/d for 3 days continuous infusion, vs vehicle", "method": "as §1, §2, §3"}, "[14]": {"tested_on": "HALO4, novel gene fragment, 649 bp", "assay": "GENECALLING differential gene expression, striatum of haloperidol-treated rats", "format": "in vivo", "conditions": "Wistar rat striatum, 0.041 mg/kg/d for 3 days continuous infusion, vs vehicle", "method": "as §1, §2, §3"}, "rats": {"tested_on": "rats", "assay": "Motor disturbances in rats treated for 28 days", "format": "in vivo, rat"}, "[15]": {"conditions": "Wistar rat striatum, 0.041 mg/kg/d for 3 days continuous infusion, vs vehicle"}, "[16]": {"conditions": "haloperidol-treated rats, striatum"}, "[17]": {"conditions": "haloperidol-treated rats, striatum, present studies"}},
  "data": [
    {"smiles": "O=C(CCCN1CCC(O)(c2ccc(Cl)cc2)CC1)c1ccc(F)cc1", "note": "[haloperidol]", "values": [
      {"measurement": "L1 retrotransposon ml vi2-m38 expression decreases (text: HALO31)", "setting": "[1]", "value": 5.5, "unit": "fold"},
      {"measurement": "Haloperidol Effect on Transcript Level: HALO7", "setting": "[2]; [15]", "value": "−1.7"},
      {"measurement": "HALO7 expression diminished", "setting": "[2]; [16]", "value": 1.7, "unit": "fold"},
      {"measurement": "Haloperidol Effect on Transcript Level: HALO24 V-1 protein", "setting": "HALO24, V-1 protein; [15]", "value": "−2.0"},
      {"measurement": "HALO24 (V-1 protein) expression decreased", "setting": "HALO24, V-1 protein; [16]", "value": 2.0, "unit": "fold"},
      {"measurement": "Haloperidol Effect on Transcript Level: HALO9", "setting": "[3]; [15]", "value": "+1.6"},
      {"measurement": "HALO9 expression increased", "setting": "[3]; [16]", "value": 1.6, "unit": "fold"},
      {"measurement": "Haloperidol Effect on Transcript Level: HALO26 Cathepsin S", "setting": "HALO26, Cathepsin S; [15]", "value": "−1.7"},
      {"measurement": "HALO26 (cathepsin S) expression decreased", "setting": "HALO26, Cathepsin S; [16]", "value": 1.7, "unit": "fold"},
      {"measurement": "Haloperidol Effect on Transcript Level: HALO27 D-Amino acid oxidase", "setting": "[4]; [15]", "value": "−2.0"},
      {"measurement": "HALO27 (D-amino acid oxidase) expression decreased", "setting": "[4]; [16]", "value": 2.0, "unit": "fold"},
      {"measurement": "Haloperidol Effect on Transcript Level: HALO13", "setting": "[5]; [15]", "value": "+6.3"},
      {"measurement": "HALO13 expression increased", "setting": "[5]; [16]", "value": 6.3, "unit": "fold"},
      {"measurement": "Haloperidol Effect on Transcript Level: HALO34 JunB", "setting": "HALO34, JunB [X54686]; [15]", "value": "+4"},
      {"measurement": "HALO34 (JunB) expression increased", "setting": "HALO34, JunB [X54686]; [17]", "value": 4, "unit": "fold"},
      {"measurement": "Haloperidol Effect on Transcript Level: HALO33 NGF1-A", "setting": "HALO33, NGF1-A; [15]", "value": "−3"},
      {"measurement": "HALO33 (NGF1-A) expression increased", "setting": "HALO33, NGF1-A; [17]", "value": 1.6, "unit": "fold"},
      {"measurement": "Haloperidol Effect on Transcript Level: HALO17", "setting": "[6]; [15]", "value": "−10"},
      {"measurement": "HALO17 expression diminished", "setting": "[6]; [16]", "value": 10, "unit": "fold"},
      {"measurement": "Haloperidol Effect on Transcript Level: HALO28 Stomach nonmuscle Ca^+2 ATPase", "setting": "[7]; [15]", "value": "+2"},
      {"measurement": "HALO28 (stomach nonmuscle Ca+2 ATPase) expression increased", "setting": "[7]; [16]", "value": 2, "unit": "fold"},
      {"measurement": "Haloperidol Effect on Transcript Level: HALO21 CNPII", "setting": "[8]; [15]", "value": "−3"},
      {"measurement": "HALO21 (CNPII) expression decreases", "setting": "[8]; [16]", "value": 3.0, "unit": "folf"},
      {"measurement": "Inositol monophosphates level", "setting": "Inisotaol monophsphates", "value": "decrease"},
      {"measurement": "binding activity with sigma receptors", "setting": "sigma receptors", "value": "binding activity"},
      {"measurement": "Haloperidol Effect on Transcript Level: HALO3", "setting": "[9]", "value": "−2.5"},
      {"measurement": "Haloperidol Effect on Transcript Level: HALO15", "setting": "[10]", "value": "+1.0"},
      {"measurement": "Haloperidol Effect on Transcript Level: HALO12", "setting": "[11]; [15]", "value": "+3"},
      {"measurement": "HALO12 expression increased", "setting": "[11]; [16]", "value": 3, "unit": "fold"},
      {"measurement": "Haloperidol Effect on Transcript Level: HALO14", "setting": "[12]; [15]", "value": "−5"},
      {"measurement": "HALO14 expression diminished", "setting": "[12]; [16]", "value": 5, "unit": "fold"},
      {"measurement": "Haloperidol Effect on Transcript Level: HALO5", "setting": "[13]", "value": "−1.5"},
      {"measurement": "Haloperidol Effect on Transcript Level: HALO4", "setting": "[14]", "value": "−3"},
      {"measurement": "motor disturbances", "setting": "rats", "value": "motor disturbances that parallel human pathology"}
    ]}
  ]
}
